From US8609659B2, “Substituted 3,8-diazabicyclo[3.2.1]octane compounds” (Neuroscienze Pharmaness S.C.A.R.L., priority 2009, dated 2013)
Where two headings read alike, the source gives them in different places.

Biological target: T1, k opioidergic receptors (Mus musculus, UniProt P33534)
T1 construct: the complete brain (excluding the cerebellum) was quickly dissected and stored in ice; from tissue; host or cells: CD1 mouse brain (excluding cerebellum) membranes
Assay: Radioreceptorial binding, k opioidergic receptors (3H-U 69.593, mouse brain membranes)
Excerpt: The affinity of the compounds synthesized towards the opioidergic receptors μ, δ, k has been evaluated in vitro by radioreceptorial binding studies by using the method reported hereinunder.
For evaluating the affinity of a compound to a particular receptor(s) it is used a preparation of a tissue wherein the particular receptor(s) is (are) present, with which the compound is contacted. The tested compound is challenged with a radioactive labelled compound whose affinity for the same receptor(s) is known. The ability of the tested compound to displace the radioactive compound from the receptor gives an index of the affinity of the compound under test for the specific receptor. The amount of radioactivity present in the receptor-compound complex allows furthermore to calculate with great accuracy the amount of compound bound to the receptor. By said method it is therefore possible to quickly establish the affinity of a new compound towards a specific receptor and thus determine its pharmacological activity. With the same experimental protocol it is possible to evaluate the affinity of the compound towards other receptors and thus establishing the specificity degree of the compound towards these further receptors.
The experimentation has been carried out according to the guide lines of the European Community for the animal experimentation (EEC n. 86/609), by using laboratory animals (CD1 Charles River Italy male mice, Calco, LC, Italy) lodged twenty per cage, under standard stabulation conditions (temperature 22±2° C., relative humidity 60%, artificial lighting with light/dark cycle of 12 hours). The food and water were ad libitum.
Receptors k: CD1 male mice weighing 20-25 g were used. The animals were sacrificed by cervical dislocation and the complete brain (excluding the cerebellum) was quickly dissected and stored in ice. The tissue was homogeneized in 40 volumes (w/v) of Tris-HCl buffer (50 Mm, pH 7.4) by an Ultra-Turrax, then centrifuged for 20 minutes at 48,000×g in a centrifuge refrigerated at 4° C. The […] was resuspended in the same buffer and incubated at 37° C. for 30 minutes in an oscillating bath. At the end of the incubation the suspension was centrifuged at 48,000×g for 15 minutes and the obtained pellets resuspended in 10 volumes of Tris-HCl buffer. The binding experiment was carried out in a 1 ml volume of the suspension at the temperature of 25° C. with a protein content in the sample of about 800-1000 μg. Incubation was carried out for 60 minutes in the presence of various concentrations of the ligand ^3H-U 69.593 (41.7 Ci/mmole). The non specific binding was determined in the presence of U69593 (10 μM). Incubation was then interrupted by performing a quick filtration by filtration apparatus Brandell®, Gaithersburg, Md., USA), by using GF/C filters (Whatman®). Receptors μ and δ: the experiments were carried out according to the method described by Unterwald (1995), by using CD1 male mice weighing 20-25 g, lodged twenty in a cage, under standard stabulation conditions (temperature 22±2° C., relative humidity 60%, artificial lighting with light/dark cycle of 12 hours). After sacrifice, the complete brain (excluding the cerebellum) was quickly dissected. The so obtained tissues were rapidly homogenized, by a Polytron® equipment in 50 volumes of Tris HCl buffer (50 mM), pH 7.4 and the homogenate centrifuged at 48,000×g for 20 minutes at 4° C. The pellets obtained after centrifugation were suspended in 50 volumes of the same buffer and the so prepared suspensions were incubated at 37° C. for 45 minutes, in an oscillating bath, for making easier the separation of the endogenous opioids from the receptors. At the end of the incubation the suspensions were centrifuged at 48,000×g, for 20 minutes at 4° C. and the resulting pellets resuspended in 40 volumes of the Tris HCl (50 mM) buffer, pH 7.4. The suspension of cerebral membranes was used for the binding tests. […]

T1 sequence (P33534 whole entry): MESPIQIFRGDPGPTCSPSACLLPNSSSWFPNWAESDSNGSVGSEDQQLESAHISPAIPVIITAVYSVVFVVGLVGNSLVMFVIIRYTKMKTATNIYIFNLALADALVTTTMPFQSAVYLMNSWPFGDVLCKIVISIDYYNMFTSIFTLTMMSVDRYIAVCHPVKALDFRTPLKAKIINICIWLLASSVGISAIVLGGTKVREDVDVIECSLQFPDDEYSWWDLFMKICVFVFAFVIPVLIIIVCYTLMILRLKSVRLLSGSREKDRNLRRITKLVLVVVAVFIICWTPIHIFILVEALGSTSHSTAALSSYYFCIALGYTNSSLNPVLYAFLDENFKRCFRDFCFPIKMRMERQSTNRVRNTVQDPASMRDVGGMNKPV

Structure (SMILES)	Ki (3H-U 69.593, CD1 mouse brain membranes, 25° C., 60 minutes, read-out: Ki k) [µM]	Ki [µM]
C=CCN1C2CCC1C1CCC2N1C(c1ccc(C(=O)N(CC)CC)cc1)c1cccc(O)c1 (centres unmarked) [Example 6.9, 4-[(10-allyl-9,10-diazatricyclo[4.2.1.1^2,5]dec-9-yl)-(3-hydroxyphenyl)methyl]-N,N-diethylbenzamide]	0.0048 ± 0.0009	
C=CCN1C2CCC1C1CCC2N1C(c1ccc(C(=O)N(CC)CC)cc1)c1cccc(OC)c1 (centres unmarked) [Example 6.1, 4-[(10-allyl-9,10-diazatricyclo[4.2.1.1^2,5]dec-9-yl)-(3-methoxyphenyl)methyl]-N,N-diethylbenzamide]		0.055 ± 0.025
